Assay results from article PMC3914206.

Legend:
panel of 442 kinases [1] = target: T1, panel of 442 kinases (Homo sapiens, UniProt P52333); format: binding; conditions: Compound Concentration 10 µM
T1 construct: purchased KINOMEscan
T1 sequence (P52333 1-1124): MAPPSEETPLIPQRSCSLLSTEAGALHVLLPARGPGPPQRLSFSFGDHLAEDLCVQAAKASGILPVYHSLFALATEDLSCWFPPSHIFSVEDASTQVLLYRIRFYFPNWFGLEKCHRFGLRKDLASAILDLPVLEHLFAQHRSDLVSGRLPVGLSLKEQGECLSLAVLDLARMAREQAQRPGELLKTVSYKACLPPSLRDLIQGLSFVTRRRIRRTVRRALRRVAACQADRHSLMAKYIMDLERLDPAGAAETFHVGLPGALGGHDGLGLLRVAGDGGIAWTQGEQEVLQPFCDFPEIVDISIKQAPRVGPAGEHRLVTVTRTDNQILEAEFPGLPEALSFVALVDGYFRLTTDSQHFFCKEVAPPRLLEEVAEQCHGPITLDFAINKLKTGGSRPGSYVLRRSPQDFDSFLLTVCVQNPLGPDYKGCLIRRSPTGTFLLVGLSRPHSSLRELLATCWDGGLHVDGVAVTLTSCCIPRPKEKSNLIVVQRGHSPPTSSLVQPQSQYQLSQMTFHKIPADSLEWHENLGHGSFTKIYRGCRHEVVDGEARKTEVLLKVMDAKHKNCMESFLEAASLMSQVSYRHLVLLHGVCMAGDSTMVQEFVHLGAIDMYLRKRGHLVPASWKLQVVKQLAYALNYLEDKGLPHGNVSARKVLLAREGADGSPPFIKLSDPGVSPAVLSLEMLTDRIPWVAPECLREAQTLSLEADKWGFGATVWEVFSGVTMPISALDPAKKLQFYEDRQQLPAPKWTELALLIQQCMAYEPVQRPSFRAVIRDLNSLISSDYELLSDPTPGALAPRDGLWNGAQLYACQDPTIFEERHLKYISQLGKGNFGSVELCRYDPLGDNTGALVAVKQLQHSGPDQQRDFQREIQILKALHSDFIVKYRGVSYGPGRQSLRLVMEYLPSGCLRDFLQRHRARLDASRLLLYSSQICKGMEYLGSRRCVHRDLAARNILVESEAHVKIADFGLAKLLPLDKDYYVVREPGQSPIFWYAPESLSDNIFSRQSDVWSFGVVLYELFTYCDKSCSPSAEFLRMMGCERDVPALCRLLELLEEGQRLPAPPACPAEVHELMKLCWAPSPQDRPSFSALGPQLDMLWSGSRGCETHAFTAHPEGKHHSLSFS
Source text: (§1) We assessed the selectivity of members of this scaffold using the KINOMEscan methodology across a near comprehensive panel of 442 kinases [[18,27]].

panel of 442 kinases [2] = target: T2, panel of 442 kinases (Homo sapiens, UniProt P68400); format: binding; conditions: Compound Concentration 10 µM
T2 construct: purchased KINOMEscan
T2 sequence (P68400 whole entry): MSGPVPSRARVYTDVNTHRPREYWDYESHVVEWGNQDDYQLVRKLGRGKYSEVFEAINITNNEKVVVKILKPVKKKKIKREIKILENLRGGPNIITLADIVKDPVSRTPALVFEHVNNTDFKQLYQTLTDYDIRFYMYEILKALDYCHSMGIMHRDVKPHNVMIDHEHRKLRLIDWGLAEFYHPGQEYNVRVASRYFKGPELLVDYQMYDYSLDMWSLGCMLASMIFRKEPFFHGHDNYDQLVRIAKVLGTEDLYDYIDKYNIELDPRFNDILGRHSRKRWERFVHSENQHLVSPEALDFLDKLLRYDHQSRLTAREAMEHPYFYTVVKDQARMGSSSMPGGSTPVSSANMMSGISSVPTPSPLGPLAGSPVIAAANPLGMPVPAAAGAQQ
Source text: as §1

SMILES | KINOMEscan: JAK3(JH1domain-catalytic) (panel of 442 kinases [1]) | KINOMEscan: CSNK2A1 (panel of 442 kinases [2])
COc1cc(C(=O)N2CCC(N3CCN(C)CC3)CC2)ccc1Nc1ncc2c(n1)N(C1CCCC1)c1ccccc1C(=O)N2C [Compound 25, 11-cyclopentyl-2-((2-methoxy-4-(4-(4-methylpiperazin-1-yl)piperidine-1-carbonyl)phenyl)amino)-5-methyl-5H-benzo[e]pyrimido[5,4-b][1,4]diazepin-6(11H)-one] | 100 | 100
CCOc1cc(C(=O)N2CCC(N3CCN(C)CC3)CC2)ccc1Nc1ncc2c(n1)N(C1CCCC1)c1ccccc1C(=O)N2C [Compound 26] | 100 | 89
COc1cc(C(=O)N2CCC(N3CCN(C)CC3)CC2)ccc1Nc1ncc2c(n1)N(C)c1ccccc1C(=O)N2C [15 (LRRK2-IN-1)] | 100 | 100
